Here are results for 79 compounds from the METLIN SMRT retention time set (Domingo-Almenara et al. 2019).

The series can be described thus: gradient 5% acetonitrile 3 min, to 50% in 2 min, to 85% in 15 min, held 3 min, 100 µL/min. The settings on record: column: Zorbax Extend-C18 2.1 x 50 mm; eluents: water / acetonitrile, 0.1% formic acid. Summed up: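 Retention time was recorded from adduct peaks, which were picked computationally and each inspected manually. Pure standards ran in mixtures of ~100 molecules on HPLC coupled to a quadrupole time-of-flight mass spectrometer, in positive and negative ionization mode, through a Zorbax Extend-C18 column (2.1 × 50 mm, 1.8 μm) at 100 μL/min. Eluents were water and acetonitrile, each with 0.1% formic acid.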
As to `Cc1ccsc1C(=O)NC1CCc2nnc(C3CC3)n2CC1` (centres undefined), the RP-LC retention time stood at 587 s. As to `Cc1noc(C)c1S(=O)(=O)NCC(c1cccnc1)c1cn(C)c2ccccc12` (centres undefined), the RP-LC retention time was determined as 700 s. For `CC(C)Oc1ccc(-c2noc(Cc3nnc(-c4ccc(F)cc4)o3)n2)cc1` the value was 1110 s. As to `Cc1ccc2c(c1)cc(S(=O)(=O)c1ccccc1)c(=O)n2CC(=O)NCc1ccccc1Cl`, the RP-LC retention time came out at 948 s. As to `O=C(CSc1ccc(-c2ccc3c(c2)OCO3)nn1)Nc1ccc2c(c1)OCCO2`, the RP-LC retention time amounted to 782 s. For `Cc1ccc(-n2nc(C)c3c(C(F)(F)F)cc(OCC(=O)NCc4ccco4)nc32)cc1` the value was 1220 s; for `Cn1nc(-c2nc(C3CC3)no2)c2c1CCN(C(=O)Nc1ccc(Cl)cc1)C2`, 882 s.

The compound `O=C(CNS(=O)(=O)c1ccc2c(c1)OCCO2)N1CCOC(c2ccccc2)C1` (centres undefined) came in with an RP-LC retention time of 775 s. As for `CC1CCN(c2ncc3c(n2)CCN(Cc2ccc(OC(C)C)cc2)C3)CC1`, the figure is 807 s; as for `O=C(Cc1ccc(F)cc1)NC1CCN(c2cc(-c3ccccc3)[nH]n2)C1` (centres undefined), 706 s; as for `COC[C@@H]1CN(c2cnccn2)C[C@H]1C(=O)NCc1ccc(C)o1`, 636 s. As for `Cn1c(SCC(=O)N2CCCCC2)nnc1-c1ccc2c(c1)OCCCO2`, the figure is 664 s; as for `CC(C)c1nc2ccc(CCC(=O)NC(C)c3ccccc3)cc2[nH]1` (centres undefined), 610 s; as for `O=C(Nc1ccc(CC(=O)N2CCOCC2)cc1)c1ccco1`, 594 s.

The compound `CC(CCNC(=O)C1CCN(Cc2cn(C)c3ccc(Cl)cc23)CC1)N1CCCCCC1` (centres undefined) yielded an RP-LC retention time of 569 s. `COc1ccc(Nc2c(-c3ccc4c(c3)OCO4)nc3cnccn23)cc1OC` displayed an RP-LC retention time of 709 s.

Turning to `CCn1cnc2ccc(-c3noc(C(C)NC(=O)c4ccccc4)n3)cc21` (centres undefined), the RP-LC retention time is 636 s. As for `CN1CCN(C(=O)c2cc3n(n2)CC(C)(C(=O)NCc2ccccc2)N(C)C3=O)CC1` (centres undefined), the figure is 572 s; as for `COc1cc(NC(=O)N2CCC(N3CCN(Cc4ccc(F)cc4)C(=O)C3=O)CC2)cc(OC)c1`, 724 s. `COc1cccc(NC(=O)N2CCc3c(c(-c4nnc(-c5ccc(F)cc5)o4)nn3C)C2)c1` came in with an RP-LC retention time of 833 s. For `O=C(O)C1=CCCN(CCON=C(c2ccccc2)c2ccccc2)C1` the value was 766 s; for `CCN1C=C(C(=O)OCc2ccccc2)C(C)=NS1(=O)=O`, 958 s; for `COCC1CN(S(=O)(=O)c2cc(F)ccc2OC)CC12CCNCC2` (centres undefined), 611 s. For `Cc1nc(CNC(=O)C2CCN(C(=O)Nc3ccc(C)c(Cl)c3)CC2)cs1` the value was 714 s; for `Cc1cccc(Sc2nccnc2N2CCC(C(=O)NCC3CCCO3)CC2)c1` (centres undefined), 888 s. For `CCCCC(=O)N1CCCC(C)C1` (centres undefined) the value was 878 s; for `COc1c2c(cc3c1OCO3)CCN(C)C2`, 598 s.

`CCCN1C(=O)Cc2ccccc2C1C(=O)NCC1CCCCC1` (centres undefined) came in with an RP-LC retention time of 881 s. For `O=C(O)Cn1c(C(=O)Nc2nc(-c3ccccc3Cl)cs2)cc2ccccc21` the value was 1130 s. For `COc1ccc(CC(=O)Nc2cc(-c3cn4cccnc4n3)ccc2OC)cc1` the value was 675 s. For `Cc1ccccc1Nc1c(-c2ccc(N3CCOCC3)cc2)nc2cccc(C)n12` the value was 702 s; for `Cc1nn(CC(=O)NCCc2ccco2)c(=O)c2c(C)n(-c3ccccc3)nc12`, 774 s. Consider `CCSc1nnc(-c2nn(C)c3c2CN(S(=O)(=O)c2ccc(Cl)cc2)CC3)n1CC`, for which the RP-LC retention time came to 983 s. For `O=C(Nc1cccn2nc(C3CCC3)nc12)c1cccs1` the value was 861 s; for `Cc1ccc(-c2csc(Cc3nc(-c4ccc5c(c4)OCO5)no3)n2)cc1`, 1210 s. For `CC(C(=O)Nc1ccc(F)cc1)C1CCN(C(=O)Nc2ccc(F)cc2)CC1` (centres undefined) the value was 834 s; for `O=C(Nc1ccccc1)C1CCN(S(=O)(=O)c2cc(-c3noc(C4CCC4)n3)cs2)CC1`, 1080 s. For `CN1CCC(NC(=O)c2ccc(-c3nnc4ccc(NC(=O)C5CCC5)cn34)cc2)CC1` the value was 606 s.

On to `COc1cc(OC)cc(C(=O)N2CCC3(C2)C(=O)N(C)c2ccc(OC)cc23)c1` (centres undefined), for which the RP-LC retention time was 798 s. With `O=C(CCCc1ccccc1)N1CC(n2ccnc2)C1`, the RP-LC retention time turned out to be 606 s.

`CS(=O)(=O)N1CC(n2cc(C(=O)N3CCOCC3)nn2)C1`: the RP-LC retention time amounted to 573 s.

Turning to `CCOc1ccc(-c2cc3c(=O)n(Cc4nc(-c5ccc(F)cc5)no4)ncn3n2)cc1`, the RP-LC retention time was found to be 1160 s. For `CCCNC(=O)c1ccc(S(N)(=O)=O)cc1` the value was 653 s; for `C=CCn1c(C)c(CC(=O)NC(C)CC)c(=O)n2nc(-c3ccc(C)cc3)nc12` (centres undefined), 824 s; for `CCn1cnc(S(=O)(=O)N2CCCC(C(=O)Nc3ccccc3)C2)c1` (centres undefined), 726 s.

Regarding `Cc1ccc(CNC(=O)C2CC(=O)N(c3ccc4oc(C)nc4c3)C2)cc1` (centres undefined), the RP-LC retention time amounted to 732 s. For `CCOC(=O)c1cn[nH]c1S(=O)(=O)Nc1ccc2c(c1)OCCO2` the value was 683 s. For `O=C(NCc1cccc(Br)c1)C1CCCN(C(=O)Cc2cccc3ccccc23)C1` (centres undefined) the value was 978 s; for `CN(c1ncccc1CNc1nc(Nc2ccc3c(c2)CC(=O)N3)ncc1C(F)(F)F)S(C)(=O)=O`, 678 s. As for `COc1ccc(CNC(=O)CN2C(=O)CSc3cccn3-c3ccccc32)c(OC)c1`, the RP-LC retention time turned out to be 868 s. For `Cc1ccc(C)c(S(=O)(=O)N2CCC(c3nc(C(=O)N4CCOCC4)c(C)o3)CC2)c1` the value was 891 s; for `Cc1nc(N2CCCC2)c2c(C(=O)NCCc3ccc(Cl)cc3)c(C)oc2n1`, 782 s; for `CS(=O)(=O)N1CCC(CNC(=O)c2cc(-c3ccccc3)on2)CC1`, 750 s. For `Cc1ccc(-c2ncc(NC(=O)CC(C)C)cn2)cc1` the value was 961 s. As for `CCOc1ccc(NC(=O)C2CCCN(c3nccnc3Sc3ccccc3)C2)cc1` (centres undefined), the figure is 1100 s; as for `O=S(=O)(Cc1c(F)cccc1Cl)N1CCc2nc(-c3ccc(F)cc3)ncc2C1`, 1130 s; as for `CC1=NS(=O)(=O)N(C)C=C1C(=O)OCc1nc(-c2cccc(C)c2)no1`, 1020 s. The compound `Cc1ccc(CNC(=O)c2ccc(Cn3c(C(F)(F)F)nc4cccnc43)cc2)cc1` came in with an RP-LC retention time of 943 s.

For `O=C(NCCn1c(=O)n(Cc2ccc(F)cc2)c2cccnc21)c1cnccn1`, the RP-LC retention time is 719 s. As for `COc1ccc(NC(=O)N2CCC(c3noc(-c4cccnc4)n3)C2)cc1` (centres undefined), the figure is 690 s. The compound `Cc1ccc(C(=O)NCCc2nc3cccnc3n2C)s1` showed an RP-LC retention time of 596 s. The compound `CCOC(=O)c1c(C)oc2nc(C)nc(NCCN(C)Cc3ccccc3)c12` registered an RP-LC retention time of 701 s.

For the compound `Cc1ccc(-c2nc(-c3ccnc(N4CCCC4)c3)no2)s1`, the RP-LC retention time was found to be 733 s.

With `O=C(Cn1ccn2nc(-c3ccc(F)cc3)c(CO)c2c1=O)Nc1cccc(Br)c1`, the RP-LC retention time worked out at 894 s. For `O=C(Cc1ccccc1)NC1CCN(c2cc(-c3ccc(Cl)cc3)[nH]n2)C1` (centres undefined) the value was 764 s; for `Cc1cnc(C(=O)NC2C[C@H]3CC[C@@H](C2)N3C(=O)C2CCCCCC2)cn1` (some centres undefined), 733 s.

`CCn1cc(C(=O)Nc2ccc(C)c(C)c2)c2cccnc21` had an RP-LC retention time of 937 s.

For `O=C(Nc1ccccn1)C1(c2cccs2)CCOCC1`, the RP-LC retention time came out at 745 s. As for `Cc1cccc(C)c1-n1ccn(Cc2nc(-c3ccc(Cl)cc3)no2)c(=O)c1=O`, the figure is 978 s; as for `CN1C(=O)c2cc(C(=O)NC3CCCCC3)nn2CC1(C)C(=O)NCc1ccc(F)cc1` (centres undefined), 776 s; as for `O=S(=O)(c1ccc(Cl)cc1)N1CCC(c2nc(-c3ccccn3)no2)CC1`, 940 s.

`O=C(NC1CCN(c2cc(-c3ccc(F)cc3)[nH]n2)C1)c1cccc(Cl)c1` (centres undefined) gave an RP-LC retention time of 774 s. As for `COCCNC(=O)C1(C)Cn2nc(-c3ccco3)cc2C(=O)N1c1ccc(OC)c(Cl)c1` (centres undefined), the figure is 776 s.

In turn, `CN(C)[C@@H]1CN(C(=O)Cn2c(=O)oc3cc(Cl)ccc32)C[C@H]1CO` gave an RP-LC retention time of 596 s. In turn, `O=C(NC1CCCCC1)C1CCCN(c2nc3ccsc3c(=O)n2Cc2ccccc2)C1` (centres undefined) returned an RP-LC retention time of 957 s. The compound `O=C(NCC(c1ccsc1)N1CCCC1)Nc1ccc(Cl)cc1` (centres undefined) displayed an RP-LC retention time of 578 s.

`O=C1NCCCCCCN(C(=O)c2cnccn2)[C@H]2CCCC[C@@H]12` displayed an RP-LC retention time of 684 s. Compound `Cc1c(Cl)cccc1S(=O)(=O)N1CCc2c(c(-c3nnc(-c4ccc(F)cc4)o3)nn2C)C1` yielded an RP-LC retention time of 1090 s. `COc1ccc(CNC(=O)C2CCN(c3nccnc3Sc3ccccc3)CC2)c(OC)c1` registered an RP-LC retention time of 983 s.
